“Also recorded” adds a separate entry of the source.
How the values were obtained:
MGC-803 cells [1] = assay: Cell cycle analysis by flow cytometry; assay type: cell-based, human; settings: for G2/M population: 24 h (Fig. 3A)
Method: MGC-803 cells were incubated in the absence and presence of 28. Subsequently, the cells were fixed with 70% alcohol in PBS. The fixed cells were incubated with RNase (1 µg/mL) propidium iodide (50 µg/mL) for 2 h. Flow cytometry analysis was performed using BD FACS (Becton Dickinson, San Jose, CA, USA).

MGC-803 cells [2] = assay: Cell scarification assay; assay type: cell-based, human; settings: time-dependent and concentration-dependent
Method: In a transwell test, the average numbers of migrated cells in fields of control, 0.1 and 0.2 μM 28 treated MGC-803 cells were 29.4, 22.4 and 16.6, respectively (Fig. 6B and C). Based on the results from these tests, we next examined the protein expression of EMT-related makers such as E-cadherenin, N-cadherenin, ZO-1 and Vementin[55].
MGC-803 cells were seeded in 6-well plate until cells grew to confluence. Tips were used to make a scratch on cells. Control and 28 contained culture media without fetal bovine serum were added subsequently after 3 times of washing by PBS. Then the cells were cultured at 37 °C in a humidified incubator containing 5% CO2 and photos taken at 0, 16, 24 and 48 h, respectively.

MGC-803 xenograft = MGC-803 xenograft model in nude mice; assay type: in vivo, BALB/c nude mice; settings: for average tumor weight: 21 days (control 1.23 ± 0.28); for mean tumor volume at end of observation period: 21 days (control 1665.98 ± 568.36)
Method: To evaluate the potential antitumor effects of 28 in vivo, a MGC-803 xenograft model were established in nude mice by subcutaneously injecting MGC-803 cells at its logarithmic phase into the right flank of mice[56]. Tumor bearing mice were then randomly assigned to five groups (control, 100 mg/kg CA-4P, 25, 50, 100 mg/kg 28) with 10 mice per group. Then, the mice were gavaged with saline (control), CA-4P and different concentrations of 28 in saline solution daily. […] At the end of the observation period, mean tumor volumes of control, CA-4P, 25, 50, and 100 mg/kg 28 groups were 1665.98 ± 568.36 mm^3, 642.61 ± 449.92 mm^3, 788.18 ± 435.92 mm^3, 1125.93 ± 668.25 mm^3 and 1273.88 ± 513.69 mm^3, respectively. […] The antitumor activity of 28 in vivo was similar to that of CA-4P.
Animals were treated according to protocols established by the ethics committee of Zhengzhou University and the in vivo experiments were carried out in accordance with the approved guidelines and approved by the ethics committee of Zhengzhou University. BALB/c nude mice (18 g, aged 4–5 weeks) were purchased from Human SJA Laboratory Animal Co. Ltd. (Hunan, China). Mice were subcutaneously implanted with MGC-803 cells (5 × 10^6 cells per mouse) on the right flank of nude mice. Once tumor volumes reached to approximately 100 mm^3, the mice were randomly divided into corresponding saline, CA-4P (100 mg/kg), 28 (100 mg/kg), 28 (50 mg/kg) and 28 (25 mg/kg) treatment groups (n = 10 mice for each group). The treatment groups received intragastric administration of 28 and CA-4P per day for a period of 21 days. Then, the mice were euthanized and tumors isolated and weighed. Their body weights were measured and tumor sizes determined by vernier caliper measurement every other day.

A549 cells = assay: CCK-8 proliferation assay, A549; assay type: cell-based, human; settings: Homo sapiens, A549; 48 h, CCK-8, mean ± SD
Method: (§1) All synthesized β-lactam-azide derivatives were evaluated for their antiproliferative activity against three cancer cell lines (MGC-803, MCF-7, A549) using CCK-8 proliferation assay. The well-known anticancer drug CA-4P was used as a control[36],[37].
(§2) MGC-803 cell line was obtained from the Chinese Academy of Sciences (Shanghai, China). MCF-7 and A549 were from the National Cell Center, China. MGC-803 cells were cultured in DMEM culture medium (DMEM, Biological Industries, Kibbutz Beit Haemek, Israel). A549 and MCF-7 cells were cultured in 1640 medium (1640, Biological Industries, Kibbutz Beit Haemek, Israel). All medium were supplemented with 10% fetal bovine serum, 100 U/ml penicillin (North China Pharmaceutical group Co.), and 100 µg/ml streptomycin (North China Pharmaceutical group Co.). All cells were cultured at 37 °C in a humidified incubator containing 5% CO2.
(§3) Synthesized analogues used in the study were dissolved in 100% cell culture grade DMSO and the final concentration of DMSO as <0.1% for testing on cancer cell lines. Cytotoxicity assays were performed on the human gastric carcinoma cell line MGC-803, the human mammary carcinoma cell line MCF-7, the human lung carcinoma cell line A549. Cells (3500–5000/well) were seeded into 96-well plates in 100 µL of culture medium. The cells were treated in triplicate with a gradient concentration of testing compounds and incubated at 37 °C, 5% CO2 for 48 h. For all cell lines, CCK-8 assay was performed to measure cytotoxic effects. The absorbance was measured using a microplate reader (BioTek Instrument, Inc. Vermont, USA) with a test wavelength of 450 nm. The absorbance levels were corrected against untreated control absorbance values. All experiments were performed in triplicate and SPSS17.0 was used for data analysis to obtain IC50 values.

MGC-803 cells [3] = assay: Western blotting of apoptosis-related proteins; assay type: cell-based, human; settings: concentration-dependent
Method: We next evaluated whether 28 induces apoptosis in MGC-803 cells by flow cytometry analysis of propidium iodide (PI) and Annexin V stained cells. […] When MGC-803 cells were incubated with 28 at 0.1, 0.2, and 0.3 μM for 24 h, the percentages of early apoptotic cells were 12.4%, 40.5%, and 49.7%, respectively and those of late apoptotic cells 2.1%, 10.1%, and 9.4%, respectively (Fig. 4A). Bcl-2 family proteins were crucial components of mitochondrial stress-induced cellular apoptosis. Thus, the expression of apoptosis-related proteins was also determined.
An Annexin V-FITC/PI kit (KeyGEN BioTECH, Nanjing, China) was used to detect apoptosis. Cells were seeded in 6-well plates and treated with 0, 0.1, 0.2 and 0.3 µM of 28 for 24 h. Then MGC-803 cells were collected and suspended in binding buffer containing Annexin V-FITC (0.5 mg/mL) and PI (0.5 mg/mL) and incubated in dark for 20 min and analyzed by flow cytometry (Becton, Dickinson and Company, NJ). The apoptosis related proteins of western blot analysis were conducted according to our previously reported method[31],[32].

MCF-7 cells = assay: CCK-8 proliferation assay, MCF-7; assay type: cell-based, human; settings: Homo sapiens, MCF7; 48 h, CCK-8, mean ± SD
Method: as §1, §2, §3

In the case of COc1cc(N2C(=O)[C@H](c3cccs3)[C@H]2c2cccc(N=[N+]=[N-])c2)cc(OC)c1OC (relative stereo) [Compound 28, trans-4-(3-azidophenyl)-3-(thiophen-2-yl)-1-(3,4,5-trimethoxyphenyl)azetidin-2-one], the “cells at the G2/M phase” value (MGC-803 cells [1]; 0.1 μM, 12 h (Fig. 3C)) is reported as 12.63%, the G2/M population (MGC-803 cells [1]; 0.1 μM) is reported as 14.13% and the “cells at the G2/M phase” value (MGC-803 cells [1]; 0.1 μM, 36 h (Fig. 3C)) is reported as 44.59%. The G2/M population (MGC-803 cells [1]; 0.2 μM) was 23.42%, the G2/M population (MGC-803 cells [1]; 0.3 μM) was 44.37% and the “distances of scratches compared to control” value (MGC-803 cells [2]) was “obviously increased”. For the same molecule, the “inhibitory rate (tumor weight)” value (MGC-803 xenograft; 25 mg/kg, intragastric daily, 21 days) was 59.34%, the average tumor weight (MGC-803 xenograft; 25 mg/kg, intragastric daily) was 0.53 ± 0.20 g and the “mean tumor volume at end of observation period” value (“mean tumor volume at end” for short) (MGC-803 xenograft; 25 mg/kg, intragastric daily) was 788.18 ± 435.92 mm^3. The “inhibitory rate (tumor weight)” value (MGC-803 xenograft; 50 mg/kg, intragastric daily, 21 days) was 30.78%, the average tumor weight (MGC-803 xenograft; 50 mg/kg, intragastric daily) was 0.85 ± 0.32 g and the “mean tumor volume at end” value (MGC-803 xenograft; 50 mg/kg, intragastric daily) was 1125.93 ± 668.25 mm^3. The tumor growth (MGC-803 xenograft; 100 mg/kg, intragastric daily) was “considerable suppression of tumor growth”, the “inhibitory rate (tumor weight)” value (MGC-803 xenograft; 100 mg/kg, intragastric daily, 21 days) was 10.99% and the average tumor weight (MGC-803 xenograft; 100 mg/kg, intragastric daily) was 1.09 ± 0.31 g. For the same molecule, the “mean tumor volume at end” value (MGC-803 xenograft; 100 mg/kg, intragastric daily) was 1273.88 ± 513.69 mm^3, the “body weight of mice” value (MGC-803 xenograft; oral administration, 21 days) was “without causing significant loss of body weight; also recorded: without causing any obvious loss of body weight” and the IC50 (A549 cells) was 507 ± 52 nM. The “expression of Bcl-2” value (MGC-803 cells [3]) was “decreased”, the “expression of cleaved caspase-3, caspase-9 and PARP” value (MGC-803 cells [3]) was “increased” and the “protein expression of BAX” value (MGC-803 cells [3]) was “increased”. For the same molecule, the IC50 (MCF-7 cells) was 421 ± 47 nM.

Reference: paper PMC5630639 (Scientific Reports, 2017)
